Assay [1] deals with T1, Genome polyprotein (dengue virus type 2, UniProt P29990). Type of assay: functional, Thailand/16681/1984.
In assay [2] the target is T1, Genome polyprotein. Type of assay: functional, Thailand/16681/1984. This is another data set of the same source.

Where “and” joins values, the source holds several entries; their conditions need not be identical. Equal values may be shown once. Bounds are passed on as bounds.

T1 sequence (P29990 1346-1475 limits assumed): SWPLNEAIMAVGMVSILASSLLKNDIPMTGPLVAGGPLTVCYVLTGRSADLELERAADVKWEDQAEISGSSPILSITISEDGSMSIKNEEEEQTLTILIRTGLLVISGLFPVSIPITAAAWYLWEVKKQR
T1 sequence (P29990 1476-2093 limits assumed): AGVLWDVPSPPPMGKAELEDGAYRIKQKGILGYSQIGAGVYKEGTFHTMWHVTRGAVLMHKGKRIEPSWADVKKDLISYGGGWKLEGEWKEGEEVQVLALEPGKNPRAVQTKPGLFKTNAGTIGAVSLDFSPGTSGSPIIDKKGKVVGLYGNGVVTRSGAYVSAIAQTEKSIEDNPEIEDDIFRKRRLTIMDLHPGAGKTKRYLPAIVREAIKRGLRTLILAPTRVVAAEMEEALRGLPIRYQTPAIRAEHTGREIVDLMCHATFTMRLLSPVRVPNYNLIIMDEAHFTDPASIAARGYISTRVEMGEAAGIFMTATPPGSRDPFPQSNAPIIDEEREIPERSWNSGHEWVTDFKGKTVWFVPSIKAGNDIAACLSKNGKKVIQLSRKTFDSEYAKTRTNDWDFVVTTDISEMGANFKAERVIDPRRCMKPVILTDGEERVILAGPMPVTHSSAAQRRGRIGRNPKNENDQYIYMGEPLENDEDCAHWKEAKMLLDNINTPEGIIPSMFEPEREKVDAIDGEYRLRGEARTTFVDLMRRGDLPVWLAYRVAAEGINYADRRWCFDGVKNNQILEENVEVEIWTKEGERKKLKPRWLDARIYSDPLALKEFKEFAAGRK

Consider `NCCCCc1ccc(NC(=O)c2cc(Cl)cc3[nH]ncc23)cc1`, for which the values for the 50% inhibitory concentration (IC50) on Genome polyprotein [1] and against Genome polyprotein [2] were greater than 99.5 µM and greater than 100 µM, respectively.

Consider `O=C(Nc1ccc2c(c1)CNCC2)c1cc(Cl)cc2[nH]ncc12`, for which the IC50 (in general, the concentration needed to halve the response being measured) is greater than 99.5 µM against Genome polyprotein [1] and greater than 100 µM against Genome polyprotein [2].

Take `O=C(O)Cc1c[nH]c2cc(-c3cc(Cl)cc(NC(=O)OCc4ccccc4)c3)ccc12`: the results for the IC50 against Genome polyprotein [1] and on Genome polyprotein [2] were 13.3 µM and 9.67 µM, respectively.

`CN1Cc2ccc(NC(=O)c3cc(Cl)cc4[nH]ncc34)cc2C1`: the IC50 on Genome polyprotein [1] is greater than 99.5 µM; on Genome polyprotein [2] it was greater than 100 µM.

Take `Cc1cc(CN)cc(NC(=O)c2cc(Cl)cc3[nH]ncc23)c1`: the concentration for half-maximal inhibition (IC50) at Genome polyprotein [1] amounted to 98.3 µM; against Genome polyprotein [2] it was 85.4 µM.

For the molecule `O=C(O)C[C@H]1CN(c2ccc(-c3cc(Cl)cc(NC(=O)OCc4ccccc4)c3)cn2)CCO1`, the 50% inhibitory concentration (IC50) worked out at 35.2 µM on Genome polyprotein [1] and 22.2 µM against Genome polyprotein [2].

For `CC(C)NC(=O)[C@H](Nc1ccc2c(c1)CNC2)c1cc(Cl)cc2[nH]ncc12`, the IC50 against Genome polyprotein [1] was 64 µM and 37.2 µM and 98.4 µM; against Genome polyprotein [2], 96.5 µM and 41.2 µM and > 100 µM and 26.4 µM.

With `O=C(Nc1ccc2c(c1)CNC2)c1cc(Br)cc2ccccc12`, the IC50 is greater than 99.5 µM on Genome polyprotein [1] and greater than 100 µM against Genome polyprotein [2].

With `NCCc1ccc(NC(=O)c2cc(Cl)cc3[nH]ncc23)cc1`, the IC50 at Genome polyprotein [1] was greater than 99.5 µM; against Genome polyprotein [2] it was greater than 100 µM.

For `Cc1c(C(=O)NCc2ccc(CN)cc2)cc(C2CC2)n1C`, the IC50 on Genome polyprotein [1] was greater than 99.5 µM; against Genome polyprotein [2], greater than 100 µM.

Regarding `O=C(Nc1cc(Cl)cc(-c2cnn(Cc3ccc(C(=O)O)cc3)c2)c1)OCc1ccccc1`, the 50% inhibitory concentration (IC50) was 18.2 µM on Genome polyprotein [1] and 8.1 µM at Genome polyprotein [2].

`C=C1C[C@H](c2cc(Cl)cc(NC(=O)OCc3ccccc3)c2)[C@@H](c2cccc(-c3nn[nH]n3)c2)C1`: the IC50 against Genome polyprotein [1] stood at 6.29 µM; against Genome polyprotein [2], 5.18 µM.

Take `O=C(Nc1ccc2c(c1)CNC2)c1cc(Cl)cc(C2CC2)c1`: the 50% inhibitory concentration (IC50) against Genome polyprotein [1] is greater than 99.5 µM; at Genome polyprotein [2] it was greater than 100 µM.

With `NCc1cc(NC(=O)c2cc(Cl)cc(NC(=O)OCc3ccccc3)c2)cc(-c2csc(CC(=O)O)c2)c1`, the 50% inhibitory concentration (IC50) against Genome polyprotein [1] was 64.7 µM; on Genome polyprotein [2], greater than 100 µM.

`O=C(Nc1ccc2c(c1)CNC2)c1cc(Cl)cc2c1CCC2`: the values for the half-maximal inhibitory concentration (IC50) at Genome polyprotein [1] and at Genome polyprotein [2] were greater than 99.5 µM and greater than 100 µM, respectively.

With `O=C(O)c1cc2cc(-c3cc(Cl)cc4ncccc34)ccc2[nH]1`, the figures for the IC50 at Genome polyprotein [1] and against Genome polyprotein [2] were 41.5 µM and 50.9 µM, respectively.

For `O=C(O)c1cc2cccc(Cc3c[nH]c4ccc(Cl)cc34)c2[nH]1`, the half-maximal inhibitory concentration (IC50) was determined as 52.1 µM at Genome polyprotein [1] and 21.6 µM against Genome polyprotein [2].

In the case of `O=C(Nc1ccc2c(c1)CNC2)c1n[nH]c(=O)c2ccccc12`, the results for the half-inhibitory concentration (IC50) against Genome polyprotein [1] and at Genome polyprotein [2] were 36.8 µM and greater than 100 µM, respectively.

With `O=C1OCc2ccc(NC(=O)c3cc(Cl)cc4[nH]ncc34)cc21`, the values for the IC50 at Genome polyprotein [1] and against Genome polyprotein [2] were greater than 99.5 µM and greater than 100 µM, respectively.

For `O=C(Nc1ccc2c(c1)CNC2)c1n[nH]c2ncc(Br)cc12`, the figures for the IC50 against Genome polyprotein [1] and at Genome polyprotein [2] were greater than 99.5 µM and greater than 100 µM, respectively.

Consider `Cc1c(C(=O)Nc2cc(-c3cnn(C)c3)ccn2)cc(C2CC2)n1C`, for which the results for the concentration for half-maximal inhibition (IC50) against Genome polyprotein [1] and on Genome polyprotein [2] were greater than 99.5 µM and greater than 100 µM, respectively.

For `N#Cc1cc(-c2ccc3[nH]c(C(=O)O)cc3c2)c2nc[nH]c2c1`, the half-inhibitory concentration (IC50) against Genome polyprotein [1] was greater than 99.5 µM; on Genome polyprotein [2], greater than 100 µM.

Take `O=C(Nc1ccc2c(c1)CNC2)c1ccccn1`: the IC50 on Genome polyprotein [1] was greater than 99.5 µM; against Genome polyprotein [2] it was greater than 100 µM.

Turning to `N#Cc1ccc(Cl)c(C(=O)Nc2ccc3c(c2)CNC3)c1`, the 50% inhibitory concentration (IC50) against Genome polyprotein [1] is greater than 99.5 µM; against Genome polyprotein [2], greater than 100 µM.

As for `O=C(Nc1ccc2c(c1)CNC2)c1cc(Br)cc2[nH]c(-c3ccccc3)nc12`, the IC50 is 2.73 µM and 2.34 µM on Genome polyprotein [1]; 5.95 µM and 6.13 µM against Genome polyprotein [2].

For `Cc1cc(CC(=O)O)ccc1Cc1c[nH]c2ccc(Cl)cc12`, the half-inhibitory concentration (IC50) on Genome polyprotein [1] was greater than 99.5 µM; on Genome polyprotein [2], greater than 100 µM.

Take `O=C(Nc1ccc2c(c1)CNC2)c1ccnc(CO)c1`: the half-maximal inhibitory concentration (IC50) against Genome polyprotein [1] is greater than 99.5 µM; at Genome polyprotein [2], greater than 100 µM.

As for `Cc1c(C(=O)Nc2cc(C(=O)N(C)C)ccn2)cc(C2CC2)n1C`, the figures for the 50% inhibitory concentration (IC50) against Genome polyprotein [1] and against Genome polyprotein [2] were greater than 99.5 µM and greater than 100 µM, respectively.

As for `O=C(Nc1ccc([C@H]2CCNC2)cc1)c1cc(Cl)cc2[nH]ncc12`, the half-inhibitory concentration (IC50) was 87.8 µM against Genome polyprotein [1] and 97.3 µM on Genome polyprotein [2].

Regarding `O=C(Nc1ccc2c(c1)CNC2)c1cccnc1`, the IC50 was greater than 99.5 µM against Genome polyprotein [1] and greater than 100 µM against Genome polyprotein [2].

On to `N[C@H]1CC[C@H](c2ccc(NC(=O)c3cc(Cl)cc4[nH]ncc34)cc2)C1`, for which the IC50 on Genome polyprotein [1] was greater than 99.5 µM; at Genome polyprotein [2] it was greater than 100 µM.

Consider `Cc1ccc(C(C)C)c(C(=O)Nc2ccc3c(c2)CNC3)c1`, for which the half-inhibitory concentration (IC50) at Genome polyprotein [1] is greater than 99.5 µM; against Genome polyprotein [2], greater than 100 µM.

With `O=C(Nc1ccc2c(c1)CNC2)c1cc(Br)cc2c1OCO2`, the concentration for half-maximal inhibition (IC50) against Genome polyprotein [1] is greater than 99.5 µM; on Genome polyprotein [2], greater than 100 µM.

In the case of `O=C(O)COc1cc2c(cc1Cc1c[nH]c3ccc(Cl)cc13)OCO2`, the IC50 against Genome polyprotein [1] was greater than 99.5 µM; against Genome polyprotein [2], 89 µM.

Take `NCCCc1ccnc(NC(=O)c2csc(C3CC3)n2)c1`: the figures for the IC50 on Genome polyprotein [1] and against Genome polyprotein [2] were greater than 99.5 µM and greater than 100 µM, respectively.

Turning to `Cc1ccc(-c2cc(CN)cc([C@@H]3C[C@H]3c3cc(Cl)cc(NC(=O)OCc4ccccc4)c3)c2)cn1`, the IC50 is 31.5 µM against Genome polyprotein [1] and greater than 100 µM at Genome polyprotein [2].

For `O=C(Nc1ccc2c(c1)CNC2)[C@H]1CCc2ccccc21`, the half-inhibitory concentration (IC50) against Genome polyprotein [1] is greater than 99.5 µM; against Genome polyprotein [2] it was greater than 100 µM.

Regarding `O=C(Nc1ccc2c(c1)CNC2)c1ccncc1`, the values for the IC50 against Genome polyprotein [1] and against Genome polyprotein [2] were greater than 99.5 µM and greater than 100 µM, respectively.

For the molecule `COC(=O)c1cc(Br)cc2c(Cc3ccc(-c4nnn[nH]4)cc3)c[nH]c12`, the IC50 was 20.3 µM on Genome polyprotein [1] and 13.6 µM against Genome polyprotein [2].

Consider `O=C1Cc2cc(NC(=O)c3cc(Cl)cc4[nH]ncc34)ccc2N1`, for which the half-inhibitory concentration (IC50) at Genome polyprotein [1] is greater than 99.5 µM; against Genome polyprotein [2], greater than 100 µM.

In the case of `Cc1c(C(=O)O)sc2ncc(Cc3c[nH]c4ccc(Cl)cc34)cc12`, the half-maximal inhibitory concentration (IC50) came out at 46.7 µM against Genome polyprotein [1] and 25.3 µM against Genome polyprotein [2].

In the case of `O=C(Nc1ccc(C2CNC2)cc1)c1cc(Cl)cc2[nH]ncc12`, the IC50 at Genome polyprotein [1] was greater than 99.5 µM; against Genome polyprotein [2] it was greater than 100 µM.

Turning to `CCc1nc2c(C(=O)Nc3ccc4c(c3)CNC4)cc(Br)cc2[nH]1`, the half-inhibitory concentration (IC50) at Genome polyprotein [1] was 24.7 µM; at Genome polyprotein [2], 25.4 µM and > 100 µM.

In the case of `Clc1ccc2nc(C3CCOCC3)n(Cc3ccc4c(c3)CNC4)c2c1`, the IC50 was greater than 99.5 µM at Genome polyprotein [1] and greater than 100 µM on Genome polyprotein [2].

As for `CC(C)c1nc2cc(Cl)ccc2n1Cc1ccc(-c2nn[nH]n2)cc1`, the IC50 at Genome polyprotein [1] is greater than 99.5 µM; against Genome polyprotein [2], greater than 100 µM.

For `O=C(Nc1ccc2c(c1)C[C@H](O)C2)c1cc(Cl)cc2[nH]ncc12`, the figures for the half-maximal inhibitory concentration (IC50) on Genome polyprotein [1] and at Genome polyprotein [2] were greater than 99.5 µM and greater than 100 µM, respectively.

Regarding `O=C(Nc1cc(Cl)cc(-c2cc(NCc3ccccc3)c(C(=O)O)cn2)c1)OCc1ccccc1`, the figures for the IC50 at Genome polyprotein [1] and against Genome polyprotein [2] were 7.58 µM and 5.35 µM, respectively.

As for `N#Cc1cccc(C[C@H](O)c2cc(Cl)cc(NC(=O)OCc3ccccc3)c2)c1`, the IC50 on Genome polyprotein [1] is greater than 99.5 µM; against Genome polyprotein [2] it was greater than 100 µM.

Take `O=C(Nc1ccc(C2CCNCC2)cc1)c1cc(Cl)cc2[nH]ncc12`: the IC50 against Genome polyprotein [1] is greater than 99.5 µM; on Genome polyprotein [2] it was greater than 100 µM.

As to `Cc1cc(-c2ccc3[nH]c(C(=O)O)cc3c2)c2cc[nH]c(=O)c2c1`, the IC50 against Genome polyprotein [1] is greater than 99.5 µM; against Genome polyprotein [2], greater than 100 µM.

As for `Cn1cc(-c2cc(CN)cc([C@@H]3C[C@H]3c3cc(Cl)cc(NC(=O)OCc4ccccc4)c3)c2)cn1`, the IC50 was 42 µM against Genome polyprotein [1] and 51 µM against Genome polyprotein [2].

Values taken from ChEMBL document CHEMBL5604063, “ASAP - DENV-2 NS2B-NS3 protease fluorescence dose response” (2024).
